The text below walks through data of patent US12473295B2, “Substituted straight chain spiro derivatives” (Janssen Pharmaceutica NV, priority 2019, dated 2025).

Structures can show the parent of a compound that is named as a salt. Where two headings read alike, the source gives them in different places.

By IC50 is commonly meant the concentration at which inhibition is half-maximal.

The subject of one data set is iCell Cardiomyocytes2. The data set is described as follows: Ca2+-fluorescence assay in human pluripotent stem cell-derived cardiomyocytes (CTCM human), iCell Cardiomyocytes2. Set-up: key: Green: No concern; Yellow: Low concern; Red: High concern; Black: Very high concern due to arrhythmic events. The data set is classed as cell-based. Conditions: 30 min. The method, then:
7) Cardio-Electrophysiological Effects of the Testing Compounds in Synchronously Beating Human Pluripotent Stem Cell-Derived Cardiomyocytes (hSC-CMs) Using a Ca^2+-Fluorescence Assay (CTCM Human)
Compounds were tested in the 96-well plates
Compounds were tested at 0.1 μM, 0.2 μM, 0.5 μM, 1 μM, 2.5 μM and 5 μM (n=4 per dose) on Cor.4U 9-Cardiomyocytes or on iCell® Cardiomyocytes2
Alternatively, compounds were tested at 0.1 μM, 0.3 μM; 1 μM, 3 μM, 10 μM and 30 μM (n=4 per dose) mostly on iCell® Cardiomyocytes2
Dimethylsulfoxide (DMSO). The solutions of the compound in DMSO or its solvent (final concentration of 0.1% DMSO; n=8)
Preparation of Test Article and Controls
Tested compounds were dissolved in DMSO at 1000-fold the intended concentrations. A compound “mother-plate” was made, containing the test compounds and positive and negative controls at 1000-fold the final concentrations. At the experiment day, these stock solutions were diluted with Tyrode (Sigma), supplemented with 10 mM HEPES (Gibco), to 2-fold the intended concentration (in round bottom compound plates). Final DMSO concentration in test solutions and vehicle control was 0.1%.
Second line hSC derived cardiomyocyte called iCell®, Cardiomyocytes2 were purchased from FUJIFILM Cellular Dynamics (USA). The experiments with test drugs are carried out 5 to 7 days after plating the cells onto the plate to have a living, beating monolayer of hiPSC-derived cardiomyocytes. The beating monolayer in 96-well-plates are normally taken from 2 Vials of frozen iCell) Cardiomyocytes2 (≈5 million cells/vial), which will be plated onto […] 96-well plates (≈50K/well).
Before Start of Experiment
At least one hour before the start of the experiments the normal cell medium was replaced with Tyrode solution with Calcium dye (see below).
Cal 520 dye (AAT Bioquest) was dissolved in 11 ml of Tyrode supplemented with 10 mM HEPES and warmed up to 37° C. before adding to the cells.
35 μl cell culture medium was removed from each well and replaced with 35 μl of pre-warmed Cal 520 dye solution and cell plate was incubated for 45 min at 37° C./5% CO2. Cells were incubated for 5 min at 37° C.
Spontaneous electrical activity is recorded, using Cal520™ (AAT Bioquest) calcium fluorescence-dye signaling. This dye integrates the total intracellular calcium activity over the whole well. A bottle of Cal520 dye (50 μg, MW: 1103/mol) is dissolved with 50 μl DMSO as a stock solution of 0.9 mM. 50 μL of the stock solution of the dye was added to 10 ml Tryodes solution to have dye concentration of 4.5 μM. Subsequently, 35 μl of this dye solution was added into each well, to have a final dye concentration of 1.58 μM. The current dye protocol on this CTCM human assay was established recently (Ivan Kopljar et al, Journal of Pharmacological and toxicological methods 2018. 91: 80-86; Lu et al., Tox Sci 2019. 170 (2): 345-356).
Fluorescent signals (Ca^2+ transient morphology) were measured using the Functional Drug Screen System (FDSS/μCell; Hamamatsu, Japan) and the recordings were subsequently analyzed off-line, using appropriate software e.g. Notocord.
The cell plate was loaded into the FDSS/μCell for a test run: Ca^2+ transients were measured for 4 minutes to check for synchronous beating of the cardiomyocytes in each well. All 96 wells were measured simultaneously (sampling interval: 0.06 s, short exposure time: 10 ms; excitation wavelength 480 nm; emission wavelength 540 nm; FDSS/μCell warmed to 37° C.).
During the compound addition step, 100 μl of the respective double-concentrated test solutions was pipetted into each well simultaneously.
Data were analyzed off-line using appropriate software e.g. Notocord-Hem (version 4.3).
The following parameters of the Ca^2′ transient morphology were measured: • beat rate (BR) • amplitude of the Ca^2+ transient (Amp), • CTD90: Ca^2+ transient duration at 90% (time to 90% of the initial base value). […]

For data set [1], the target named is menin/MLL (terbium chelate-labeled menin, FITC-MBM1 peptide) (Homo sapiens (Human), UniProt O00255). The data set is described as follows: Menin/MLL homogenous time-resolved fluorescence (HTRF) assay.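 Note: IC50 from percent inhibition of HTRF signal, normalized between wells without competitor and wells with a saturating competitor that displaces FITC-MBM1 from His-tagged menin.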 Format: binding. Particulars: HTRF-30 min incubation IC50, 30 min incubation. A general note: TR-FRET usually uses a lanthanide donor and a delayed reading to cut background.

Another data set deals with MOLM14 cells. The data set is described as follows: Proliferation assay (spheroid growth, 8 days), MOLM14.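 Note: spheroid size read as confluence by live-cell imaging, compounds added at a range of concentrations with 0.3% DMSO, DMSO-treated wells = 0%, highest reference dose = low control.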 The data set is classed as cell-based, human. Conditions: MOLM14, 8 days, read-out: spheroid assay_OneTime MOLM14 IC50.
A further data set has as its system OCI-AML3 cells. In words: Proliferation assay (spheroid growth, 8 days), OCI-AML3. Format: cell-based, human. Conditions: OCI-AML3, 8 days. In a few lines:
(§1)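 200 MOLM14 (MLL-AF9), 200 OCI-AML3 (NPM1c) or 300 KO-52 (MLL wildtype) cells were grown as spheroids in ultra-low attachment wells with compound, 0.3% DMSO, for 8 days at 37 °C. Confluence was imaged on day 8, normalized to DMSO and top-dose reference compound. IC50 came from a variable-slope fit constrained 0–100%.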

The next data set concerns KO-52 cells. In words: Proliferation assay (spheroid growth, 8 days), KO-52 control cell line. Particulars: Homo sapiens, […], read-out: spheroid assay_OneTime KO-52 IC50. Format: cell-based, human. Summed up: as §1
The test system of another data set is MEIS1 mRNA. In words: MEIS1 mRNA expression assay (Quantigene Singleplex) in MOLM14 cells.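 Note: MEIS1 transcript levels read by probe hybridization and normalized to RPL28 mRNA, with IC50 fitted to fold changes across a rising compound concentration series.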 Particulars: Homo sapiens, MOLM-14, 48 h, 48 hours incubation. The data set is classed as cell-based, human.

menin/MLL (terbium chelate-labeled menin, FITC-MBM1 peptide), sequence (O00255 other isoform, or with tags, fused parts or gaps): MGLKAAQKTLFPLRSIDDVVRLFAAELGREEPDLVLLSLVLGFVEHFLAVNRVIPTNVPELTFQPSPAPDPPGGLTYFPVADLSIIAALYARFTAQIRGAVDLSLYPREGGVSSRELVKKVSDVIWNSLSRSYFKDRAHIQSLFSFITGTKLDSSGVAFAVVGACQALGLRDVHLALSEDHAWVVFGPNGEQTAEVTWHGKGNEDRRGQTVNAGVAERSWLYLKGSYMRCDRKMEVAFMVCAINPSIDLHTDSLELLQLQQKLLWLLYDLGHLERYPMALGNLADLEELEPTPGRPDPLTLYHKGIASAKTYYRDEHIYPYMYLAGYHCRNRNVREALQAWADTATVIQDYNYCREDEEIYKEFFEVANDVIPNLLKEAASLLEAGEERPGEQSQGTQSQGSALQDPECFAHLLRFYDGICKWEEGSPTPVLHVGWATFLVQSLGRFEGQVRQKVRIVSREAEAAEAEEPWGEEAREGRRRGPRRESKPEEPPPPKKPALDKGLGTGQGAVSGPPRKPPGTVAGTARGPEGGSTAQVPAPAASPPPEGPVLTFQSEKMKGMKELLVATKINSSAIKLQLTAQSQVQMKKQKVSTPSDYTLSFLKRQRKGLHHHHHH

In the case of `CCN(C(=O)c1cc(F)ccc1Oc1nncnc1N1CCC2(C1)CN([C@H](CCCN(C)CCOC)C(C)C)C2)C(C)C` [Compound 70a], the “Color @ 0.1 μM (hazard score)” value in the data set with iCell Cardiomyocytes2 (iCell Cardiomyocytes2, 0.1 μM, range 0.1-30 μM) is given as “Green”. Moreover, the “Color @ 0.3 μM (hazard score)” value in the data set with iCell Cardiomyocytes2 (iCell Cardiomyocytes2, 0.3 μM) was “Green”. In addition, the “Color @ 1 μM (hazard score)” value in the data set on iCell Cardiomyocytes2 (iCell Cardiomyocytes2, 1 μM, range 0.1-30 μM) is reported as “Green”. Also, the “Color @ 3 μM (hazard score)” value in the data set with iCell Cardiomyocytes2 (iCell Cardiomyocytes2, 3 μM) was “Green”. In addition, the “Color @ 10 μM (hazard score)” value with iCell Cardiomyocytes2 (iCell Cardiomyocytes2, 10 μM) was “Green”. The “Color @ 30 μM (hazard score)” value in the data set with iCell Cardiomyocytes2 (iCell Cardiomyocytes2, 30 μM) is reported as “yellow”.

Regarding `CCN(C(=O)c1cc(F)ccc1Oc1nncnc1N1CCC2(C1)CN([C@H](CCCN(C)[C@@H](C)CC(=O)N(C)C)C(C)C)C2)C(C)C` (single isomer, unassigned) [Compound 185, 2-((5-(2-((R)-6-(((*S)-4-(dimethylamino)-4-oxobutan-2-yl)(methyl)amino)-2-methylhexan-3-yl)-2,6-diazaspiro[3.4]octan-6-yl)-1,2,4-triazin-6-yl)oxy)-N-ethyl-5-fluoro-N-isopropylbenzamide fumarate], the IC50 in data set [1] amounted to 0.2 nM; with MOLM14 cells (Homo sapiens, MOLM-14, […]), 79 nM; in the data set on OCI-AML3 cells (Homo sapiens, OCI-AML-3, […]) it was 61 nM; in the data set with KO-52 cells it was 1700 nM; in the data set with MEIS1 mRNA, 44 nM.

On to `CC(C)[C@@H](CCCN(C)[C@@H](C)CC(N)=O)N1CC2(CCN(c3ncnnc3Oc3ccc(F)cc3C(=O)N(C(C)C)C(C)C)C2)C1` (single isomer, unassigned) [Compound 201, 2-((5-(2-((*R)-6-(((S)-4-amino-4-oxobutan-2-yl)(methyl)amino)-2-methylhexan-3-yl)-2,6-diazaspiro[3.4]octan-6-yl)-1,2,4-triazin-6-yl)oxy)-5-fluoro-N,N-diisopropylbenzamide fumarate], for which the concentration for half-maximal inhibition (IC50) in data set [1] was 0.13 nM; in the data set with MOLM14 cells (Homo sapiens, MOLM-14, […]), 40 nM; in the data set on OCI-AML3 cells (Homo sapiens, OCI-AML-3, […]), 65 nM; with KO-52 cells, over 15000 nM; in the data set with MEIS1 mRNA, 52 nM.

`CCN(C(=O)c1cc(F)ccc1Oc1nncnc1N1CCC2(C1)CN([C@H](CCCN(C)CC(OC)OC)C(C)C)C2)C(C)C` [Compound 150, (R)-2-((5-(2-(6-((2,2-dimethoxyethyl)(methyl)amino)-2-methylhexan-3-yl)-2,6-diazaspiro[3.4]octan-6-yl)-1,2,4-triazin-6-yl)oxy)-N-ethyl-5-fluoro-N-isopropylbenzamide fumarate]: the concentration for half-maximal inhibition (IC50) in data set [1] is 0.26 nM; in the data set on MOLM14 cells (Homo sapiens, MOLM-14, […]), 14 nM; in the data set on OCI-AML3 cells (Homo sapiens, OCI-AML-3, […]), 160 nM; in the data set on KO-52 cells, 8700 nM; in the data set on MEIS1 mRNA it was 13 nM.

`CCN(C(=O)c1cc(F)ccc1Oc1nncnc1N1CCC2(C1)CN([C@H](CCNCCO)C(C)C)C2)C(C)C` (single isomer, unassigned) [Compound 268, (*R)—N-ethyl-5-fluoro-2-((5-(2-(1-((2-hydroxyethyl)amino)-4-methylpentan-3-yl)-2,6-diazaspiro[3.4]octan-6-yl)-1,2,4-triazin-6-yl)oxy)-N-isopropylbenzamide fumarate]: the IC50 is 0.29 nM in data set [1]; 200 nM with MOLM14 cells (Homo sapiens, MOLM-14, […]); 530 nM in the data set on OCI-AML3 cells (Homo sapiens, OCI-AML-3, […]); over 15000 nM in the data set with KO-52 cells; 340 nM with MEIS1 mRNA.

As for `CCN(C(=O)c1cc(F)ccc1Oc1nncnc1N1CCC2(C1)CN(C(C(C)C)C(C)CCN(C)CCOC)C2)C(C)C` (single isomer, unassigned) [Compound 266, N-ethyl-5-fluoro-N-isopropyl-2-((5-(2-(6-((2-methoxyethyl)(methyl)amino)-2,4-dimethylhexan-3-yl)-2,6-diazaspiro[3.4]octan-6-yl)-1,2,4-triazin-6-yl)oxy)benzamide (mixture of R,R and S,S; or mixture of R,S and S,R) fumarate], the IC50 in data set [1] was 0.92 nM; in the data set on MOLM14 cells, 29 nM; with OCI-AML3 cells, 49 nM; in the data set with KO-52 cells, over 15000 nM; with MEIS1 mRNA, 39 nM.

On to `CCN(C(=O)c1cc(F)ccc1Oc1nncnc1N1CCC2(C1)CN([C@H](CCN(C)CCOC)C(C)C)C2)C(C)C` (single isomer, unassigned) [Compound 276, (*R)—N-ethyl-5-fluoro-N-isopropyl-2-((5-(2-(1-((2-methoxyethyl)(methyl)amino)-4-methylpentan-3-yl)-2,6-diazaspiro[3.4]octan-6-yl)-1,2,4-triazin-6-yl)oxy)benzamide], for which the half-inhibitory concentration (IC50) is 0.5 nM in data set [1]; 240 nM with MOLM14 cells (Homo sapiens, MOLM-14, […]); 1610 nM in the data set on OCI-AML3 cells (Homo sapiens, OCI-AML-3, […]); over 15000 nM with KO-52 cells; 390 nM with MEIS1 mRNA.

For the compound `CCN(C(=O)c1cc(F)ccc1Oc1nncnc1N1CCC2(C1)CN([C@H](CCCN(C)C(CO)CO)C(C)C)C2)C(C)C` [Compound 256, (R)-2-((5(2-(6-((1,3-dihydroxypropan-2-yl)(methyl)amino)-2-methylhexan-3-yl)-2,6-diazaspiro[3.4]octan-6-yl)-1,2,4-triazin-6-yl)oxy)-N-ethyl-5-fluoro-N-isopropylbenzamide fumarate], the IC50 in data set [1] is 0.15 nM; in the data set with MOLM14 cells (Homo sapiens, MOLM-14, […]) it was 84 nM; in the data set with OCI-AML3 cells (Homo sapiens, OCI-AML-3, […]), 360 nM; in the data set on KO-52 cells it was over 15000 nM; with MEIS1 mRNA it was 130 nM.

Consider `CCN(C(=O)c1cc(F)ccc1Oc1nncnc1N1CCC2(C1)CN([C@H](C[C@@H](CN(C)C)OC)C(C)C)C2)C(C)C` (single isomer, unassigned) [Compound 315, 2-((5-(2-((3*R,5*S)-6-(dimethylamino)-5-methoxy-2-methylhexan-3-yl)-2,6-diazaspiro[3.4]octan-6-yl)-1,2,4-triazin-6-yl)oxy)-N-ethyl-5-fluoro-N-isopropylbenzamide fumarate], for which the half-inhibitory concentration (IC50) in data set [1] is 0.51 nM; in the data set on MOLM14 cells (Homo sapiens, MOLM-14, […]), 290 nM; in the data set with OCI-AML3 cells (Homo sapiens, OCI-AML-3, […]) it was 1090 nM; in the data set with KO-52 cells, over 15000 nM; in the data set with MEIS1 mRNA it was about 330 nM.

Consider `CCN(C(=O)c1cc(F)ccc1Oc1nncnc1N1CCC2(C1)CN([C@H](CCCN(C)CC(C)(C)O)C(C)C)C2)C(C)C` [Compound 140, (R)-N-ethyl-5-fluoro-2-((5-(2-(6-((2-hydroxy-2-methylpropyl)(methyl)amino)-2-methylhexan-3-yl)-2,6-diazaspiro[3.4]octan-6-yl)-1,2,4-triazin-6-yl)oxy)-N-isopropylbenzamide fumarate], for which the IC50 turned out to be 0.093 nM in data set [1]; 110 nM in the data set on MOLM14 cells (Homo sapiens, MOLM-14, […]); 330 nM in the data set on OCI-AML3 cells (Homo sapiens, OCI-AML-3, […]); 5750 nM in the data set with KO-52 cells; 28 nM in the data set on MEIS1 mRNA.
